This is an account of results in US20230183169A1, “AROMATIC COMPOUND, PREPARATION METHOD THEREFOR AND USE THEREOF IN DRUG” (SICHUAN ACADEMY OF MEDICAL SCIENCES - SICHUAN PROVINCIAL …, priority 2020, published 2023).

What all share (type): in vivo, rat
The test system of data set [1] is male SD rats. In words: Subcutaneous infiltration anesthesia in rats (acupuncture stimulation of back skin). The conditions noted are these: for Duration of local anesthesia: 0.4 mL subcutaneous. How it is done: The compounds of the examples were dissolved in water for injection to a concentration of 0.2-0.5 g/100 mL (0.2-0.5%), or mixed with commercially-available clinically-common local anesthetic drugs to prepare a mixed solution with a specific proportion, and the 0.75% levobupivacaine was used as the positive control compound. The experimental method was as follows: male SD rats weighing 180-300 g were shaved off back hair 1 day before the experiment, and a circular skin area with a diameter of 4 cm was exposed. 0.4 mL of the drug solution was subcutaneously injected to the exposed circular center on the back using a 1 mL syringe to form a skin mound. After 1 minute, the first measurement was performed. Each of 8 random parts around the center of the injection site was stimulated once by acupuncture of 15 g force using a 26G needle (the stimulation site was no more than 1 cm away from the injection center). […] If there was no such behavior, it was considered that the local anesthetic effect existed. […] Except for the first measurement, the measurement was performed every 2 hours within 12 hours after the administration, and every 6 hours after 12 hours after the administration. 8 rats were used for each drug for the experiment.

The subject of data set [2] is left sciatic nerve of rats. In words: Sciatic nerve blocking experiment in rats (Von Frey filaments 60 g). The procedure: The compounds of the examples were dissolved in water for injection to a concentration of 0.5-2.0 g/100 mL (0.5%-2%), or mixed with commercially-available clinically-common local anesthetic drugs to prepare a mixed solution with a specific proportion, and the 0.75% levobupivacaine was used as the positive control compound. The experimental method was as follows: male SD rats weighing 180-300 g were anesthetized with isoflurane, 0.2 mL of the drug-containing solution was injected near the left sciatic nerve of rats, and 8 rats were used for each drug for the experiment. After the rats woke up, the first measurement was performed, and then the measurement was performed every 2 hours. If there was still an anesthetic effect after six measurements, the measurement was performed every 6 hours until the anesthetic effect disappeared. The method for judging the existence of anesthetic effect was as follows. The skin of the sole and lateral surface of the hindlimb of the rat on the side injected with the drug was stimulated using Von Frey filaments (60 g). […] If there was no such behavior, it was considered that the local anesthetic effect existed.

For data set [3], the system named is rats. In words: Mortality rate after injection of drugs through tail vein. The settings on record: 0.2% aqueous solution, 0.4 mL through tail vein, 10 rats. How it is done: 0.2% aqueous solution of the compounds of the present invention and 0.75% levobupivacaine solution were injected into the rats through tail vein in 0.4 mL, and the mortality rate was observed. Each drug was injected into 10 rats (half male and half female, weighing 290-310).

Where [4] appears, read: 0.15 + 0.35% bupivacaine hydrochloride.
[5] abbreviates: 0.5%, 0.2 mL near left sciatic nerve.
[6] abbreviates: 0.5 + 0.35% bupivacaine hydrochloride, 0.2 mL near sciatic nerve.
The mark [7] stands for this setting: 1.0%, 0.2 mL near left sciatic nerve.
The mark [8] stands for this setting: 2.0%, 0.2 mL near left sciatic nerve.
[9] abbreviates: 0.15 + 0.35% lidocaine hydrochloride.
Setting [10] is: 0.5 + 0.35% lidocaine hydrochloride, 0.2 mL near sciatic nerve.
Where [11] appears, read: 0.15 + 0.15% tetracaine hydrochloride.
The mark [12] stands for this setting: 0.5 + 0.15% tetracaine hydrochloride, 0.2 mL near sciatic nerve.

For the molecule `CC[N+](CC)(CC)CC(=O)Nc1c(C)cc(O)cc1C` [Compound 1], the “Duration of local anesthesia” value in data set [1] (setting [4]) was in the range of 24 to 30 h; in data set [1] (0.2%, rat back), 6 to 8 h; in data set [1] (0.5%, rat back), 10 to 12 h; in data set [2] (setting [5]), 4 to 10 h; in data set [2] (setting [6]) it was 18 to 30 h; in data set [2] (setting [7]), 12 to 18 h. In addition, in data set [2] (setting [8]), the “Duration of local anesthesia” value fell in the range of 30 to 48 h. In data set [3], the Mortality rate % came to 0%.
Regarding `CC[N+](CC)(CC)CC(=O)Nc1c(C)cc(OC(C)=O)cc1C` [Compound 3], the “Duration of local anesthesia” value was 18 to 24 h in data set [1] (setting [4]); 8 to 14 h in data set [1] (0.2%, rat back); 12 to 18 h in data set [1] (0.5%, rat back); 10 to 12 h in data set [2] (setting [5]); 24 to 36 h in data set [2] (setting [6]); 18 to 30 h in data set [2] (setting [7]). In addition, the “Duration of local anesthesia” value in data set [2] (setting [8]) lay within 54 to 96 h. The Mortality rate % in data set [3] is on record as 0%.
For `CC[N+](CC)(CC)CC(=O)Nc1c(C)cc(N)cc1C` [Compound 7], the “Duration of local anesthesia” value was 4 to 6 h in data set [1] (setting [4]); 2 to 4 h in data set [1] (0.2%, rat back); 2 to 4 h in data set [1] (0.5%, rat back); less than 2 h in data set [2] (setting [5]); 2 to 4 h in data set [2] (setting [6]); less than 2 h in data set [2] (setting [7]). Besides, in data set [2] (setting [8]), the “Duration of local anesthesia” value is 2 to 4 h. Further, the “Local anesthetic effect at the first measurement” value in data set [1] (injections of 0.2% and 0.5%, first measurement 1 minute after subcutaneous injection) is “not effective”.
Turning to `CC[N+](CC)(CC)CC(=O)Nc1c(C)cc(OC(C)C)cc1C` [Compound 15], the “Duration of local anesthesia” value fell in the range of 36 to 42 h in data set [1] (setting [4]); 24 to 30 h in data set [1] (0.2%, rat back); 42 to 54 h in data set [1] (0.5%, rat back); 12 to 18 h in data set [2] (setting [5]); 30 to 42 h in data set [2] (setting [6]); 24 to 36 h in data set [2] (setting [7]). Further, the “Duration of local anesthesia” value in data set [2] (setting [8]) was in the range of 120 to 144 h. Besides, the Mortality rate % in data set [3] is recorded as 0%.
Take `CCCCCCOc1cc(C)c(NC(=O)C[N+](CC)(CC)CC)c(C)c1` [Compound 17]: the “Duration of local anesthesia” value in data set [1] (setting [4]) lay in the range of 54 to 72 h; in data set [1] (0.2%, rat back) it was 36 to 48 h; in data set [1] (0.5%, rat back), 54 to 60 h; in data set [2] (setting [5]), 24 to 42 h; in data set [2] (setting [6]), 48 to 66 h; in data set [2] (setting [7]), 42 to 66 h. For the same molecule, the “Duration of local anesthesia” value in data set [2] (setting [8]) lay within 96 to 144 h. This molecule also gave a Mortality rate % in data set [3] of 0%.
As to `C=CC[N+]1(CC(=O)Nc2c(C)cc(OC(=O)CCC)cc2C)CCCCC1` [Compound 26], the “Duration of local anesthesia” value in data set [1] (0.15 + 0.35% levobupivacaine hydrochloride) was 42 to 54 h; in data set [1] (0.2%, rat back) it was 24 to 36 h; in data set [1] (0.5%, rat back), 54 to 66 h; in data set [2] (setting [5]), 24 to 30 h; in data set [2] (0.5 + 0.35% levobupivacaine hydrochloride, 0.2 mL near sciatic nerve) it was 36 to 48 h; in data set [2] (setting [7]) it was 48 to 60 h. Also, the “Duration of local anesthesia” value in data set [2] (setting [8]) lay within 96 to 160 h. Besides, the Mortality rate % in data set [3] came to 0%.
For the molecule `CCCCCOC(=O)Oc1cc(C)c(NC(=O)C[N+](CC)(CC)CC)c(C)c1` [Compound 27], the “Duration of local anesthesia” value is 36 to 60 h in data set [1] (0.15 + 0.5% lidocaine hydrochloride); 18 to 30 h in data set [1] (0.2%, rat back); 36 to 48 h in data set [1] (0.5%, rat back); 12 to 24 h in data set [2] (setting [5]); 36 to 66 h in data set [2] (0.5 + 0.5% lidocaine hydrochloride, 0.2 mL near sciatic nerve); 30 to 42 h in data set [2] (setting [7]). Besides, the “Duration of local anesthesia” value in data set [2] (setting [8]) was in the range of 96 to 144 h. Besides, the Mortality rate % in data set [3] stood at 0%.
For the molecule `CCCCCN(C)CC(=O)Oc1cc(C)c(NC(=O)C[N+](CC)(CC)CC)c(C)c1` [Compound 28], the “Duration of local anesthesia” value in data set [1] (setting [9]) lay within 54 to 66 h; in data set [1] (0.2%, rat back), 36 to 48 h; in data set [1] (0.5%, rat back), 54 to 72 h; in data set [2] (setting [5]) it was 30 to 36 h; in data set [2] (setting [10]), 48 to 54 h; in data set [2] (setting [7]) it was 48 to 60 h. Also, the “Duration of local anesthesia” value in data set [2] (setting [8]) is 120 to 144 h. This molecule also displayed a Mortality rate % in data set [3] of 0%.
For the molecule `CC[N+](CC)(CCO)CC(=O)Nc1c(C)cc(OC(=O)CCCc2ccc(Cl)cc2)cc1C` [Compound 31], the “Duration of local anesthesia” value in data set [1] (setting [9]) was in the range of 36 to 42 h; in data set [1] (0.2%, rat back), 24 to 30 h; in data set [1] (0.5%, rat back) it was 36 to 54 h; in data set [2] (setting [5]), 12 to 18 h; in data set [2] (setting [10]), 24 to 42 h; in data set [2] (setting [7]), 24 to 30 h. Further, the “Duration of local anesthesia” value in data set [2] (setting [8]) was 72 to 120 h. In data set [3], the Mortality rate % stood at 0%.
As for `CCCC(=O)Oc1cc(C)c(NC(=O)C2CCCC[N+]2(C)CCC)c(C)c1` (stereo not shown) [Compound 33], the “Duration of local anesthesia” value in data set [1] (setting [11]) was in the range of 66 to 84 h; in data set [1] (0.2%, rat back), 36 to 54 h; in data set [1] (0.5%, rat back), 60 to 72 h; in data set [2] (setting [5]), 24 to 30 h; in data set [2] (setting [12]), 60 to 84 h; in data set [2] (setting [7]), 48 to 66 h. In data set [2] (setting [8]), the “Duration of local anesthesia” value was 120 to 144 h. In data set [3], this molecule registered a Mortality rate % of 0%.
On to `CCN(CCCCCOc1cc(C)c(NC(=O)C[N+](CC)(CC)CC)c(C)c1)CC(=O)Nc1c(C)cccc1C` [Compound 45], for which the “Duration of local anesthesia” value lay within 36 to 48 h in data set [1] (setting [11]); 24 to 36 h in data set [1] (0.2%, rat back); 42 to 60 h in data set [1] (0.5%, rat back); 18 to 24 h in data set [2] (setting [5]); 36 to 42 h in data set [2] (setting [12]); 30 to 42 h in data set [2] (setting [7]). Moreover, the “Duration of local anesthesia” value in data set [2] (setting [8]) lay in the range of 96 to 120 h. In data set [3], this molecule displayed a Mortality rate % of 0%.
As to `CC[N+](CC)(CC)CC(=O)Nc1c(C)cc(OC(=O)OCCCN2CCCCC2C(=O)Nc2c(C)cccc2C)cc1C` (stereo not shown) [Compound 48], the “Duration of local anesthesia” value is 66 to 72 h in data set [1] (setting [11]); 36 to 54 h in data set [1] (0.2%, rat back); 60 to 78 h in data set [1] (0.5%, rat back); 24 to 36 h in data set [2] (setting [5]); 60 to 72 h in data set [2] (setting [12]); 54 to 72 h in data set [2] (setting [7]). Moreover, the “Duration of local anesthesia” value in data set [2] (setting [8]) lay in the range of 120 to 160 h. The Mortality rate % in data set [3] was 0%.
On to `CC[N+](CC)(CC)CC(=O)Nc1c(C)cc(OC(=O)CCCCCCCN2CCCCC2C(=O)Nc2c(C)cccc2C)cc1C` (stereo not shown) [Compound 50], for which the “Duration of local anesthesia” value in data set [1] (setting [11]) is 42 to 54 h; in data set [1] (0.2%, rat back) it was 18 to 30 h; in data set [1] (0.5%, rat back), 24 to 48 h; in data set [2] (setting [5]) it was 24 to 30 h; in data set [2] (setting [12]) it was 36 to 60 h; in data set [2] (setting [7]) it was 36 to 48 h. Also, the “Duration of local anesthesia” value in data set [2] (setting [8]) lay in the range of 96 to 120 h. In data set [3], the Mortality rate % is 0%.
For the molecule `CCCCN1CCCCC1C(=O)Nc1c(C)cccc1C` (stereo not shown) [bupivacaine, reference compound], the “Duration of local anesthesia” value in data set [1] (0.75%, rat back) lay within 4 to 6 h; in data set [2] (0.75%, 0.2 mL near left sciatic nerve) it was 2 to 6 h.
